Assay results taken from patent EP3556767A1, “CELL PENETRATING PEPTIDES” (Universidade De Santiago De Compostela, priority 2018, dated 2019).
One block for each compound: values may come before it. Where a SMILES comes first, the peptide text is derived from it. The star is where a group is joined. 5TAMRA = CN(C)c1ccc2c(c1)Oc1cc(N(C)C)ccc1C21OC(=O)c2cc(C(=O)*)ccc21; X1 = O=C(CON=CCO[C@H]1O[C@H](CO)[C@@H](O)[C@H](O)[C@@H]1O)*; X2 = CC(C)=NOCC(=O)*; Ahx = NCCCCCC(=O)O

Legend:
HeLa cells [1] = experiment: Cell transport experiments (fluorescence microscopy, co-localization); format: cell-based; details: for transport of ConA: ConA labelled with Alexa Fluor-647
Procedure: HeLa cells growing on four chamber glass bottom dishes were washed with HEPES-Krebs-Ringer (HKR) buffer (5 mM HEPES, 137 mM NaCl, 2.68 mM KCI, 2.05 mM MgCl2, 1.8 mM CaCl2, pH 7.4) and nuclei were stained by incubation with 1 µM Hoechst 33342 in HKR for 30 min. The CPP and protein were diluted in HKR and incubated for 7 min at room temperature to allow the formation of the complexes. Cells were washed with HKR and incubated with the complexes for another 30 min. Cells were washed again to remove excess peptide before performing epifluorescence microscopy using a Nikon Eclipse Ti-E inverted microscope or confocal microscopy with a Leica SP5 microscope. Images were analyzed with ImageJ and the co-localization parameters (Manders coefficients) were calculated using the Coloc2 plugin selecting the Costes method of threshold regression.

[2] = Circular dichroism, percentage of helicity; format: physicochemical; details: 40°C; for % Helicity in Liposomes: egg yolk phosphatidylcholine liposomes
Procedure: Circular Dichroism (CD) measurements were performed with a Jasco J-1100 CD Spectrometer equipped with a Jasco MCB-100 Mini Circulation Bath for temperature control.
Circular dichroism measurements were carried out with the following settings: acquisition range: 300-190 nm; band width: 1.0 nm; accumulation: 3 scans; data pitch: 1 nm; CD scale 200 mdeg/1.0 dOD; D.I.T. (Data Integration Time): 1 s; scanning mode: continuous; scanning speed: 200 nm/min. Measurements were done from 10 °C to 60 °C (data interval: 10 °C; temp. gradient 5 °C/min) in a quartz cell of 0.2 cm path length at a final volume of 0.5 mL (H2O or TFE) with a final peptide concentration of 200 µM.
The results are expressed as the mean residue molar ellipticity [θ]MRt with units of degrees·cm^2.dmol^-1 and calculated using the equation S1.
The percentage of helicity was calculated using the equation S2. For the measurements in liposomes, samples were prepared by drying under reduced pressure L-α-phosphatidylcholine (16.7 µL, 25 mg/mL solution in CHCl3) and peptide (300 µL, 100 µM) in TFE to obtain a ratio lipid/peptide of 18:1 in a 10 mL round bottomed flask. The mixture was concentrated in a rotary evaporator to dryness, forming a film. The lipid/peptide mixture were suspended in HKR buffer (300 µL) to a final peptide concentration 100µM and sonicated for 45 min until a clear solution was obtained. Spectra were recorded in a 0.2 cm path length quartz cell. [formula]
Equation S1: Formula to calculate the ellipticity. θ is the ellipticity (mdeg), C is the peptide concentration (M) and I is the cell path length (cm). helicity % = (θMRt222nm−2340)/(30300) × 100 [formula]
Equation S2: Formula to calculate the percent of helicity in where the molar ellipticity at 222 nm is an absolute value.

HeLa cells [3] = experiment: Quantification of the uptake by flow cytometry; format: cell-based; details: TAMRA labelled peptides, 1, 3, 5, 7, 10 µM; Figure 3
Procedure: For internalization standard assays we measured the amount of peptide fluorescence in cells by flow cytometry. Briefly, semiconfluent monolayers of HeLa cells seeded the day before were washed twice with HKR before incubation with different concentrations (1, 3, 5, 7, 10 µM) of TAMRA labelled peptides diluted in cell culture medium without serum for 1 hour at 37 °C . Then, cells were trypsinized with 100 µL of Trypsin-EDTA (Gibco) for 10 min at 37 °C, and trypsin neutralized with 100 µL of 2 % FBS in PBS with 5 mM EDTA. Pipetting broke cell clumps and the analysis was done in a Guava easyCyte™ cytometer. TAMRA levels were determined by excitation at 532 nm and detection at 575/25 nm. For the analysis, cells with typical FSC and SSC parameters were selected, and median fluorescence intensity was calculated for each sample. Data analysis was performed with InCyte software included in GuavaSoft 3.2 (Millipore).
The results of uptake of CPP P8 in HeLa, A-549 and SF9 are depicted in Figure 5: Uptake quantification by flow cytometry in three different cell lines: HeLa cells, A549 cells and Sf9 cells. Data points were collected in triplicate at six different concentrations (0, 1, 3, 5, 7, 10 µM). Cells were treated in DMEM (-) (HeLa, A549), or Sf-900-II (-) (Sf9) for 1 hour prior to trypsinization and cytometry quantification. Error bars indicate SD of three replicates.

HeLa cells [4] = experiment: Viability in the presence of saporin (MTT); format: cell-based; details: up to 30 µM, 1 h incubation, Figure 9
Procedure: Saporin (253 aa, 28 kDa) is a toxic protein from the group of the ribosome-inactivating proteins (RIP), which is not capable of reaching the cytosol by itself, although it can be passively internalized by pinocytosis if it is found in the culture medium, being retained in endosomes. Incubation of the cells with this protein in the presence of an endosomolytic agent causes the release of the protein to the cytosol and cell death.
For the experiment, HeLa cells were incubated in a 96-well plate with 10 µg/mL of saporin, and increasing concentrations of the P8 and R8 acetylated peptides.
The cells were co-incubated with the protein and peptide for 1 h in culture medium without serum or antibiotics, at which time the compounds were removed, washed and complete medium was added for 6 h, to allow the maturation of the endosomes and the escape of the toxin. At that time, MTT (tetrazolium salt) was added, cells were further incubated for 3 h, and the medium removed before solubilizing the formazan salt with DMSO. This viability test measures the reduction of MTT to formazan by mitochondrial activity, which can then be quantified by absorbance.

[5] = test system: HeLa cells stably transfected with a plasmid carrying the LoxP-DsRED-STOP-LoxP-eGFP insert; experiment: Cre recombinase protein cytosolic delivery (Cre Reporter system); format: cell-based; details: 1 µM Cre recombinase protein
Procedure: In order to further test the capabilities of the CPPs of the invention to release macromolecules into the cytosol, a Cre recombinase delivery assay was done in the presence of P8. HeLa cells stably transfected with a plasmid carrying the LoxP-DsRED-STOP-LoxP-eGFP insert (Cre Reporter system) were incubated with 1 µM Cre recombinase protein and CPPs P8 or R8 at different concentrations.
These cells express normally the dsRED protein (red fluorescence), but when the Cre recombinase protein removes the dsRED ORF by recombination, the eGFP gene (green fluorescence) is expressed instead. Thus, the percentage of cells expressing eGFP can be used as a measure of the percentage of cells where the Cre Recombinase had been effectively released into the cytosol.

endosomes = experiment: Dextran escape from endosomes; format: cell-based; details: dextran 250 µg/ml; Figure 11
Procedure: Dextran is a polysaccharide (in this case labeled with a green fluorescent probe) known to internalize cells through the endocytic pathway. Thus, if the CPPs of the invention are capable of inducing release of dextrane from endosomes into the cytosol, the cell will display diffuse green fluorescence. The experiment was run by incubating dextran (250 µg/ml) in the presence of 5 µM of a CPP: (i) P8 marked with TAMRA, (ii) acetylated P8, and (iii) R8 as comparison.

[6] = co-localization of peptide and ConA

Compound: CC(C)=NOCC(=O)NCCCC[C@H](NC(=O)[C@H](CCCNC(=N)N)NC(=O)CCCCCNC(=O)c1ccc2c(c1)C(=O)OC21c2ccc(N(C)C)cc2Oc2cc(N(C)C)ccc21)C(=O)N[C@@H](CC(C)C)C(=O)N[C@@H](CCCNC(=N)N)C(=O)N[C@@H](CCCNC(=N)N)C(=O)N[C@@H](CC(C)C)C(=O)N[C@@H](CC(C)C)C(=O)N[C@@H](CCCNC(=N)N)C(=O)N[C@@H](CCCNC(=N)N)C(=O)N[C@@H](CC(C)C)C(=O)N[C@@H](CCCCNC(=O)CON=C(C)C)C(=O)N[C@@H](CCCNC(=N)N)C(=O)N[C@@H](CC(C)C)C(N)=O [TmP(Acetone)2, reference compound] ({5TAMRA-Ahx}-RK(X2)LRRLLRRLK(X2)RL-NH2)
transport of ConA (HeLa cells [1]): did not complex or transport ConA

Compound: CC(C)C[C@H](NC(=O)[C@H](CCCNC(=N)N)NC(=O)[C@H](CCCCNC(=O)CON=CCO[C@H]1O[C@H](CO)[C@@H](O)[C@H](O)[C@@H]1O)NC(=O)[C@H](CC(C)C)NC(=O)[C@H](CCCNC(=N)N)NC(=O)[C@H](CCCNC(=N)N)NC(=O)[C@H](CC(C)C)NC(=O)[C@H](CC(C)C)NC(=O)[C@H](CCCNC(=N)N)NC(=O)[C@H](CCCNC(=N)N)NC(=O)[C@H](CC(C)C)NC(=O)[C@H](CCCCNC(=O)CON=CCO[C@H]1O[C@H](CO)[C@@H](O)[C@H](O)[C@@H]1O)NC(=O)[C@H](CCCNC(=N)N)NC(=O)CCCCCNC(=O)c1ccc2c(c1)C(=O)OC21c2ccc(N(C)C)cc2Oc2cc(N(C)C)ccc21)C(N)=O [TmP(Man)2] ({5TAMRA-Ahx}-RK(X1)LRRLLRRLK(X1)RL-NH2)
transport of ConA (HeLa cells [1]): the ConA cellular uptake was observed
Manders coefficients (peptide and protein co-localization) (HeLa cells [1]; approximate value given in the text): ~0.6
Manders' tM1 (Peptide) (HeLa cells [1]; [6]): 0.66
Manders' tM2 (Protein) (HeLa cells [1]; [6]): 0.63

% Helicity in water [2]: 19.3%
% Helicity in Liposomes [2]: 29.5%
Compound: TmHexL R A5L R A5L R [P5]
uptake in living HeLa cells (HeLa cells [3]): perform better in the uptake test

Compound: CC(C)C[C@H](NC(=O)c1ccc2c(c1)C(=O)OC21c2ccc(N(C)C)cc2Oc2cc(N(C)C)ccc21)C(=O)N[C@@H](CCCNC(=N)N)C(=O)N[C@@H](C)C(=O)N[C@@H](CC(C)C)C(=O)N[C@@H](C)C(=O)N[C@@H](C)C(=O)N[C@@H](CC(C)C)C(=O)N[C@@H](C)C(=O)N[C@@H](CCCNC(=N)N)C(=O)N[C@@H](C)C(=O)N[C@@H](C)C(=O)N[C@@H](C)C(=O)N[C@@H](C)C(=O)N[C@@H](C)C(=O)N[C@@H](C)C(=O)N[C@@H](CCCNC(=N)N)C(N)=O [P8, TmL R ALAALA R A6 R] (5TAMRA-LRALAALARAAAAAAR-NH2)
toxicity to HeLa cells, peptide alone (HeLa cells [4]): little or no toxicity

Compound: Ac-LRALAALARAAAAAAR-NH2 [acetylated P8, AcL R ALAALA R A6 R]
peptide concentration at the maximum percentage of eGFP expressing cells [5]: 10 µM
maximum percentage of eGFP expressing cells ([5]; Figure 10): 35%
concentration at which the peptide starts to release the dextran into the cytosol (endosomes): 10 µM

% Helicity in water [2]: 35.1%
% Helicity in Liposomes [2]: 29.9%
Compound: TmHexA R ALAALA R ALA4 R [P6]
uptake in living HeLa cells (HeLa cells [3]): perform better in the uptake test

% Helicity in water [2]: 21.7%
% Helicity in Liposomes [2]: 12.7%
Compound: TmHexA R AALLAA R AALA3 R [P3]
